Patent US12661384B2, “Methods for inducing cell division of postmitotic cells” (priority 2015, dated 2026)

System: Human embryonic stem cell-derived cardiomyocytes
Assay: Screen of factor cocktails: PHH3 staining and total nuclei
Type: cell-based
Procedure: To determine an optimal cocktail of factors for inducing cell proliferation and/or cell cycle reentry of human postmitotic cardiomyocytes, combinations of factors were screened. […] Cells were treated with combinations of CDK1AF, CDK4, CCNB1, CCND1, AURKB or GFP control adenovirus, with or without combinations of TGF-βi (SB431542, “SB”), a […] (MK1775, “MK”), and IGF1. Analysis was performed to identify cocktails of factors that increased the number of cells undergoing mitosis as assessed by increased phospho-histone H3 staining at 4-, 8-, and 12-days after treatment with factor cocktails. FIG. 10, panel A. Analysis was also performed to identify which cocktails of factors had the highest cell survival as assessed by the increase in total number of nuclei. FIG. 10, panel B.

SMILES | cell survival (total number of nuclei) (4, 8 and 12 days after treatment) | replacement of factors in the cocktail (activation of CDK1 with small molecule)
NC(=O)c1ccc(-c2nc(-c3ccc4c(c3)OCO4)c(-c3ccccn3)[nH]2)cc1 [SB431542] | enhanced survival | 
C=CCn1c(=O)c2cnc(Nc3ccc(N4CCN(C)CC4)cc3)nc2n1-c1cccc(C(C)(C)O)n1 [MK1775] |  | could replace CDK1 and CCNB1 from the cocktail
